According to US12338236B2, “Benzoisothiazole and benzoisoxazole compounds for the treatment of mental disorders” (SUVEN LIFE SCIENCES LIMITED, priority 2022, dated 2025):
Counter-ions that a name gives are not always drawn.

System: DOPA levels in striatum
Assay: Reserpine-induced DOPA accumulation
Format: in vivo, Male Wistar rats
Conditions: rats, 3 mg/kg, p.o., 1.16 h before sacrifice, striatum
Description: Example-53: Reserpine-Induced DOPA Accumulation
Male Wistar rats were pretreated with reserpine (5 mg/kg, s.c.) approximately 18 h before sacrifice and were thereafter fasted until sacrifice. Example-2 (3 mg/kg, p.o.) and (3-(3-hydroxyphenyl)-N-n-propylpiperidine (3-PPP); 30 mg/kg, s.c.) were administered 1.16 h and 1 h, respectively before sacrifice. Haloperidol (0.5 mg/kg, s.c.) was used as a positive control and was dosed 10 min prior to 3-PPP in a separate group of animals. 3-Hydroxybenzylhydrazine dihydrochloride (NSD-1015; 100 mg/kg, s.c.) was then administered 0.5 h before sacrifice. Each rat was sacrificed, brain was removed and then striatum was isolated. The tissue was immediately weighed and homogenized in 0.1 N perchloric acid by means of an ultrasonic disruptor while being cooled in ice. The homogenate was centrifuged at 4° C. at 20,000 g for 15 min. The supernatant was assayed for dihydroxyphenylalanine (DOPA) levels using HPLC-ECD.

Cc1nnc(-c2csc(OCCCN3CCN(c4nsc5ccccc45)CC3)n2)o1 [Example-2, 3-(4-{3-[4-(5-Methyl-[1,3,4]oxadiazol-2-yl)-thiazol-2-yloxy]-propyl}-piperazin-1-yl)-benzo[d]isothiazole oxalate]
Blockade of the effects of 3-PPP on reserpine induced DOPA accumulation: 25%
